B1: Frizzled 6 (FZD6), wild type, expressed as V5-FZD6-mCherry and as FZD6-GFP (receptor, human, UniProt O60353 19-706, looked up)
chain: HSLFTCEPITVPRCMKMAYNMTFFPNLMGHYDQSIAAVEMEHFLPLANLECSPNIETFLCKAFVPTCIEQIHVVPPCRKLCEKVYSDCKKLIDTFGIRWPEELECDRLQYCDETVPVTFDPHTEFLGPQKKTEQVQRDIGFWCPRHLKTSGGQGYKFLGIDQCAPPCPNMYFKSDELEFAKSFIGTVSIFCLCATLFTFLTFLIDVRRFRYPERPIIYYSVCYSIVSLMYFIGFLLGDSTACNKADEKLELGDTVVLGSQNKACTVLFMLLYFFTMAGTVWWVILTITWFLAAGRKWSCEAIEQKAVWFHAVAWGTPGFLTVMLLAMNKVEGDNISGVCFVGLYDLDASRYFVLLPLCLCVFVGLSLLLAGIISLNHVRQVIQHDGRNQEKLKKFMIRIGVFSGLYLVPLVTLLGCYVYEQVNRITWEITWVSDHCRQYHIPCPYQAKAKARPELALFMIKYLMTLIVGISAVFWVGSKKTCTEWAGFFKRNRKRDPISESRRVLQESCEFFLKHNSKVKHKKKHYKPSSHKLKVISKSMGTSTGATANHGTSAVAITSHDYLGQETLTEIQTSPETSMREVKADGASTPRLREQDCGEPASPAASISRLSGEQVDGKGQAGSVSESARSEGRISPKSDITDTGLAQSNNLQVPSSSEPSSLKGSTSLLVHPVSGVRKEQGGGCHSDT
notes: Frizzled 6 (FZD6), human, Uniprot ID O60353; Two differently tagged copies of the same receptor are tested against each other, so they are written as one molecule; The FCS experiment used FZD6-GFP alone; also called FZD6 wt; source: HEK293, transiently transfected (Lipofectamine 2000), in living cells; not shown: V5 (on the crosslinked copy), N-terminal, kept; mCherry (on the crosslinked copy), …
B2: FZD6 TM5 synthetic peptide (peptide)
peptide: KKLDASRYFVLLPLCLCVFVGLSLLLAGIISKKK
notes: flanking lysines added to the transmembrane stretch; transmembrane helix 5 of human FZD6, Uniprot ID O60353; source: synthetic peptide (Pepscan Therapeutics or Fmoc synthesis, HPLC purified)

Columns and labels:
FZD6–FZD6 dimer = experiment: dcFRAP of V5-FZD6-mCherry/FZD6-GFP (FZD6 dimerization); assay type: cell-based, human; conditions: HEK293; co-transfection of V5-FZD6-mCherry, FZD6-GFP and minigene; N=43 TM1, N=66 TM5
Protocol: For dual color FRAP experiments, cells grown in four compartment 35 mm glass bottom dishes were washed three times with BE buffer[19] (150 mM NaCl, 2.5 mM KCl, 10 mM HEPES, 12 mM glucose, 0.5 mM CaCl2, and 0.5 mM MgCl2). Then, the cells were incubated at RT for 30 min with biotin-conjugated goat polyclonal anti-V5 antibody (Bethyl) diluted 1:100 in BE buffer supplemented with 2.5% bovine serum albumin. For antibody-mediated cross-linking, avidin was added and incubated for 15 min and washed two times with BE buffer before the experiments were performed. In Fig. 4, dcFRAP experiments are presented that employ chemical surface crosslinking to visualize assembly of FZD6 with DVL or heterotrimeric G proteins according to previously published protocols. Live cell imaging experiments were carried out using a Zeiss 710 laser scanning microscope. Images were acquired using a 40×, 1.2 NA C-Apochromat objective and the 488 nm and the 561 nm laser lines were used to excite GFP and mCherry fluorophores, respectively. Photobleaching was performed by 100% laser illumination of a 1.80 × 1.80 µm area placed over the cell plasma membrane. Fluorescence was measured pre- and post-bleach using low-intensity illumination for a total time period of 100 s. Average pixel intensity was measured using the ZEN2013 software, corrected for background fluctuations and bleaching artifacts and normalized to pre-bleached intensity. The recovered mobile fraction (F m) was calculated as follows: F m = (I P–I 0)/(I I–I 0), where I I is the initial intensity measured prior to bleaching, I 0 is the immediate fluorescence intensity post-bleaching and I P is intensity value post-bleaching. The mobile fraction was defined by the average of the fluorescence recovery assessed between time 85–101 s (including pre-bleach measurements). We excluded experiments in which the extracellularly tagged receptors were not sufficiently immobilized after the crosslinking procedure (cutoff at 40% crosslinking-induced reduction in mobile fraction). Kinetic determination of mobile fractions of crosslinked V5-FZD6-mCherry and FZD6-GFP with WNT stimulation over time were performed in one cell culture well. Measurements for each time point were performed on separate cells.
Statistical and graphical analysis was performed using Graph Pad Prism 5 software. Data were analyzed by two-tailed t-test or one-way ANOVA with Fisher’s least significant difference post hoc analysis. Curve fitting of FRAP data was done with a two-phase association nonlinear function using the least square fit. Data for receptor titration in the presence of C59 and output to P-ERK1/2 in Fig. 6h was fit to a linear regression model. All experiments were repeated at least three times in independent experiments (not representing technical replicates). For single cell analysis (dcFRAP), the number of the individual ROIs obtained from several cells in at least three independent experiments is provided in the figure legends. Data from individual ROIs are summarized for data presentation providing the sum of independent observations. Significance levels are given as: *P < 0.05; **P < 0.01; ***P < 0.001. Data in FRAP curves and bar graphs (FRAP) are presented as mean ± s.e.m.

[1] = tested on: ERK1/2 phosphorylation in MLE-12 cells; experiment: basal P-ERK1/2 immunoblot, MLE-12 cells expressing minigenes; assay type: cell-based, mouse; conditions: transient transfection of minigene
Protocol: (§1) MLE-12 or HEK293 cells (ATCC) were plated in a 24- or 48-well plate at a density of 100,000 or 50,000 cells/well, respectively. After 24 h, cells were transfected using Lipofectamine 2000 according to the manufacturer’s instructions. Cells were stimulated (24 h post-transfection) with 300 ng ml^−1 recombinant carrier-free WNT-5A (CF WNT-5A; R&D Systems). Stimulation was stopped by the addition of lysis buffer (1% NP-40, 150 mM NaCl, 50 mM Tris/HCl pH 8). Lysates were sonicated and analyzed by 7.5 or 10% Mini-PROTEAN TGX precast polyacrylamide gels (Bio-Rad) and transferred to PVDF membranes using the Trans-Blot Turbo system (Bio-Rad). […] Proteins were detected with horseradish peroxidase-conjugated secondary antibodies (goat anti-rabbit and goat anti-mouse (Pierce)) and Clarity Western ECL Blotting Substrate (Bio-Rad). […]
(§2) Quantification of P-ERK1/2 is normalized to β-actin as loading control. […] P-ERK1/2, HA-TM1/5 and β-actin as loading control were assessed by PAGE/immunoblotting. […]

[2] = tested on: lysophosphatidic acid receptor (endogenous); experiment: lysophosphatidic acid-induced P-ERK1/2 in HEK293 cells with minigenes; assay type: cell-based; conditions: lysophosphatidic acid 10 µM, 10 min
Protocol: as §1, with “Cells were stimulated (24 h post-transfection) with 300 ng ml^−1 recombinant carrier-free WNT-5A (CF WNT-5A; R&D Systems).” left out
as §2

[3] = tested on: HEK293 and MLE-12 cell membrane; experiment: immunocytochemistry of HA-tagged minigenes without permeabilization; assay type: cell-based; conditions: 4% paraformaldehyde, no permeabilization
Source text: Supplementary Figure 7: Control experiments for assaying receptor dimerization by dcFRAP and expression of minigenes. (a) HEK293 and MLE-12 cells were transfected with HA-tagged TM1/5 minigenes, fixed in 4% paraformaldehyde and stained with an anti-HA antibody/Cy2-conjugated secondary antibody in the absence of cell permeabilization by detergents. […]
confirms both the membrane expression of the minigenes as well as the correct orientation of the peptides with the N-terminal signal sequence/HA tag on the extracellular side accessible to the primary antibody. Images were taken with a 40x objective using the 488 nm laser line on a Zeiss LSM 710 confocal microscope. Size bars – 10 µm. (b) Bar graph compares the immobile fraction in dcFRAP experiments of FZD6-GFP after CL of V5-FZD6-mCherry in cells expressing minigenes corresponding to either TM1 (control) or TM5 (competing at the dimer interface). P= […]
Error bars give s.e.m.; * P<0.05 (two-tailed t-test). (c) Transient transfection of TM5, […]
abrogation of dimer formation, in the presence of TM5, reduces receptor-mediated signaling. (d) Bar graph summarizes four independent immunoblotting experiments. P-ERK1/2 in TM1 expressing MLE-12 cells were normalized to 100%. […]
as §2

[4] = tested on: protease-activated receptor (endogenous); experiment: thrombin-induced P-ERK1/2 in HEK293 cells with minigenes; assay type: cell-based; conditions: thrombin 10 U/ml, 10 min
[5] = molecular target: the molecule itself; experiment: fluorescence cross-correlation spectroscopy (FCCS); living HEK293 cells co-expressing FZD6-GFP and V5-FZD6-mCherry at low levels (10-1000 receptors per µm^2), no crosslinking; dynamic measurements before and after WNT-5A (300 ng ml^-1)
[6] = molecular target: B1; experiment: cell-based or functional assay
[7] = molecular target: T1, FZD6 TM4 synthetic peptide (human); experiment: SEC; Superdex 30 analytical column, triple distilled water + 0.01% DDM, room temperature; 500 µM of each peptide, incubated together for 2 h; conditions: both partners purified
T1 construct: flanking lysines added to the transmembrane stretch; transmembrane helix 4 of human FZD6, Uniprot ID O60353; Whole peptide as printed: [residues removed]; source: synthetic peptide (Pepscan Therapeutics or Fmoc synthesis, HPLC purified)
T1 peptide: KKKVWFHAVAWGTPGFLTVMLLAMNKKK

Molecule | effect on basal P-ERK1/2 [1] | effect on lysophosphatidic acid-induced P-ERK1/2 [2] | membrane expression and orientation (anti-HA staining) [3] | effect on thrombin-induced P-ERK1/2 [4] | other results
KKLDASRYFVLLPLCLCVFVGLSLLLAGIISKKK [TM5 minigene] | reduced basal P-ERK1/2 | did not observe any difference in P-ERK1/2 induction | Positive anti-HA staining in the cell membrane | did not observe any difference in P-ERK1/2 induction | effect of minigene on FZD6 dimer formation (FZD6–FZD6 dimer): perturbed dimer formation
KKKSFIGTVSIFCLCATLFTFLTFLIKKK [TM1 minigene] | did not affect basal ERK1/2 levels | did not observe any difference in P-ERK1/2 induction | Positive anti-HA staining in the cell membrane | did not observe any difference in P-ERK1/2 induction | 
B1 |  |  |  |  | stoichiometry N [5]: 2
KKLDASRYFVLLPLCLCVFVGLSLLLAGIISKKK [HA-tagged TM5 minigene of FZD6] |  |  |  |  | basal P-ERK1/2 level (immunoblot) in MLE-12 cells expressing the TM5 minigene, which interferes with the FZD6-FZD6 dimer; the TM1 minigene had no effect [6]: 56.7%
B2 |  |  |  |  | binding result [7]: binds

From PMC5548745, “Agonist-induced dimer dissociation as a macromolecular step in G protein-coupled receptor signaling” (Nature Communications, 2017)
